Patent publication US20040105778A1, “Gamma irradiation of solid nanoparticulate active agents” (Elan Pharma International Limited, priority 2002, published 2004)

Experiment: Gamma irradiation dosing studies, naproxen assay and degradants
Format: physicochemical

What does the source list for `COc1ccc2cc([C@H](C)C(=O)O)ccc2c1` [Naproxen (API), naproxen]?
Naproxen Assay Average (Control (0 kGy)): 99.07 % w/w; Naproxen Assay Relative to Control (Control (0 kGy)): 100.00; Naproxen Assay Average (gamma dose 5 kGy): 96.38 % w/w; Naproxen Assay Relative to Control (gamma dose 5 kGy): 97.28; Naproxen Assay Average (gamma dose 10 kGy): 100.82 % w/w; Naproxen Assay Relative to Control (gamma dose 10 kGy): 101.77; Naproxen Assay Average (gamma dose 15 kGy): 100.44 % w/w; Naproxen Assay Average (gamma dose 25 kGy): 100.08 % w/w; Naproxen Assay Average (gamma dose 30 kGy): 100.47 % w/w; Naproxen Assay Average (gamma dose 40 kGy): 99.14 % w/w; Naproxen Assay Relative to Control (gamma dose 40 kGy): 100.07; Naproxen Assay Average (gamma dose 50 kGy): 99.49 % w/w; Naproxen Assay Relative to Control (gamma dose 50 kGy): 100.42
